In ChEMBL document CHEMBL2150845, “BACE Inhibitors: Potential Treatment of Alzheimer's Disease, Dementia, and Related Neurodegenerative Disorders (A): 5,6-Dihydroimidazo[1,2-a]pyrazin-8-yl-amine Derivatives: Patent Highlight” (ACS Med Chem Lett, 2012):

molecular target: Beta-secretase 1 (Homo sapiens, UniProt P56817); experiment: Inhibition of BACE1 by FRET assay
Sequence (P56817 whole entry): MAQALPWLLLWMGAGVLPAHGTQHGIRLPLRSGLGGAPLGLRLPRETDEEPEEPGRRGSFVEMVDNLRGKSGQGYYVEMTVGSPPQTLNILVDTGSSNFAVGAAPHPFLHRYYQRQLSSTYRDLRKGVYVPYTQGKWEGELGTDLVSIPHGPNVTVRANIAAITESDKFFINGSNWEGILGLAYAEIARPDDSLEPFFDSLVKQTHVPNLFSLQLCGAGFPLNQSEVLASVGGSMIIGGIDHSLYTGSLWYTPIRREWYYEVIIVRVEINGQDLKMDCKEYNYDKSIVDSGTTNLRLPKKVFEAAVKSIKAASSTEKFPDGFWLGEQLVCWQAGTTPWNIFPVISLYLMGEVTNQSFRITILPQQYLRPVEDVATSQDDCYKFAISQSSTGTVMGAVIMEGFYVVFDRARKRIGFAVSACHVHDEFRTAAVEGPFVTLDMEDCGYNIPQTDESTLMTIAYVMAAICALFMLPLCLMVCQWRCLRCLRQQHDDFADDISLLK

Row | SMILES | IC50 [nM]
1 | NC1=N[C@@](c2cc(NC(=O)c3ccc(F)cn3)ccc2F)(C(F)F)Cn2ccnc21 | > 30200
2 | C[C@@]1(c2cc(NC(=O)c3ccn(C(F)F)n3)ccc2F)Cn2cc(C(F)(F)F)nc2C(N)=N1 | 46.8
3 | C[C@@]1(c2cc(NC(=O)c3ccc(C#N)cn3)ccc2F)Cn2c(C#N)cnc2C(N)=N1 | 38.9
4 | C[C@@]1(c2cc(NC(=O)c3ccn(C(F)F)n3)ccc2F)Cn2c(C#N)cnc2C(N)=N1 | 44.7
